# Measured values published in article PMC9959553, “Promising Antifungal Molecules against Mucormycosis Agents Identified from Pandemic Response Box®: In Vitro and In Silico Analyses” (Journal of Fungi, 2023).
# Where two headings read alike, the source gives them in different places.
# Key:
# [1] = tested on: R. oryzae, R. microsporus and R. stolonifer; assay: Antifungal susceptibility testing, values stated over the three species; assay type: cell-based; details: over the three Rhizopus species
# Experimental: (§1) The susceptibility of the Rhizopus species to MMV396785 (alexidine), MMV1580844, MMV642550 and MMV019724 was determined using the broth microdilution method, according to EUCAST protocols, with modifications. Posaconazole and amphotericin B were also used as reference antifungal drugs because they are commonly used for the treatment of mucormycosis. […] A standardized suspension of conidia (2 × 10^5/mL) was added to the wells and incubated for 48 h at 37 °C, in a 5% CO2 atmosphere. Fungal growth was analyzed via spectrophotometry readings at 600 nm and cell viability was assessed using the XTT reduction assay. Minimum inhibitory concentration (MIC) of each compound was defined as the lowest concentration that inhibits 50% of fungal growth, because these fungi are highly resistant to antifungal drugs and a reduction in half of their growth is relevant. […] MFC values were defined as the lowest drug concentration able to arrest fungal growth.
# R. microsporus = assay: Antifungal susceptibility testing (broth microdilution, MIC and MFC); assay type: cell-based, Rhizopus microsporus var. microsporus; details: for MIC50 / MFC: Rhizopus microsporus, 48 h; for MIC50: lowest concentration that inhibits 50% of fungal growth; for MFC: subculture in drug-free medium
# Experimental: as §1
# R. oryzae [2] = assay: Antifungal drug synergy assay, Bliss independence model; assay type: cell-based, Rhizopus oryzae; parameters: key to Interaction: S, synergistic interaction; A, antagonist interaction; Efficacy of Combined Drugs, E obs / Efficacy of Combined Drugs, E exp: concentration or dose not given beside the values; details: for Efficacy of Drugs Alone (% of Inhibition), MIC50: at MIC50; for Efficacy of Drugs Alone (% of Inhibition), ½ MIC50: at ½ MIC50; for ΔE: Eobs minus Eexp; for Efficacy of Combined Drugs, E exp: expected by Bliss calculation
# Experimental: (§2) Synergistic interactions were evaluated using the checkerboard method according to EUCAST guidelines (EUCAST 2008). R. oryzae conidia (2 × 10^5/mL) were grown in 96-well plates containing supplemented RPMI in the presence of the following selected compounds: […] An inhibition of at least 50% was defined as the cut-off for minimum inhibitory concentration (MIC). Interactions were determined by the fractional inhibitory concentration index (FICI), which was calculated using the following formula: (MIC combined/MIC drug A alone) + (MIC combined/MIC drug B alone). […] The Bliss independence model calculation was performed according to […] colleagues and Zhao and colleagues. The following formula was used to assess drug interaction: […] The results were classified as follows: synergistic effect when Eobs > Eexp; indifference when Eobs = Eexp; antagonistic effect when Eobs < Eexp.
# R. oryzae UCP1295 [3] = assay: Screening of the Pandemic Response Box library at 5 µM; assay type: cell-based, Rhizopus oryzae; details: for inhibition at 5 µM: Rhizopus arrhizus, UCP1295, 48 h; for Viability Inhibition (XTT): XTT reduction; for % of growth inhibition, Mean: 48 h
# Summary of the method: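 Compounds at 5 μM in RPMI 1640 with 2% glucose and MOPS (0.165 mol/L, pH 7.2), with conidia at 2 × 10^5/mL, incubated 48 h at 37 °C in 5% CO2. Growth read by OD at 600 nm; hits defined as ≥60% inhibition. Posaconazole (5 μM) and 1% DMSO as controls.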
# R. oryzae [4] = assay: Antifungal susceptibility testing (broth microdilution, MIC and MFC); assay type: cell-based, Rhizopus oryzae; details: for MIC50 / MFC: Rhizopus arrhizus, 48 h; for MIC50: lowest concentration that inhibits 50% of fungal growth; for MFC: subculture in drug-free medium
# Experimental: as §1
# R. oryzae UCP1295 [5] = assay: Antifungal drug synergy assay, checkerboard method (FICI); assay type: cell-based, Rhizopus oryzae; details: Rhizopus arrhizus, UCP1295, 48 h; drug alone; read-out: MIC50 Alone
# Experimental: as §2
# [6] = Cytotoxicity assay (neutral red); assay type: cell-based; details: human
# Experimental: (§3) Cytotoxicity of alexidine, MMV1580844, MMV642550 and MMV019724 was performed using three cell lineages: RAW 264.7, a murine macrophage culture; A549, adenocarcinomic human alveolar basal epithelial cells; and HaCaT, a spontaneously transformed aneuploid immortal keratinocyte cell line from adult human skin. Cells were grown in DMEM (Dulbecco’s Modified Eagle’s Medium, Sigma-Aldrich, MO, USA), supplemented with 10% fetal bovine serum and incubated for 48 h at 37 °C with 5% CO2 in the presence of serially diluted concentrations (0.3–50 μM) of each compound. Cell viability was measured using the neutral red (NR) assay and quantified using a spectrophotometer at 595 nm (SpectraMax® i3x, Molecular Devices®, San José, CA, USA).
# R. oryzae cells = assay: Analysis of fungal cell alterations with fluorescent staining; assay type: cell-based, Rhizopus oryzae; details: ½× MIC50, 48 h
# Experimental: Alterations of R. oryzae cells caused by alexidine, MMV1580844, MMV642550 and MMV019724 were analyzed using fluorescent staining. Chitin, nucleic acid, oxidative stress, mitochondrial membrane potential and neutral lipid content were evaluated using calcofluor white (Sigma-Aldrich, MO, USA), Sytox Blue (ThermoFisher, Waltham, MA, USA), 2′,7′–dichlorofluorescein diacetate (DCFH-DA) (Sigma-Aldrich, MO, USA), JC-1 probe (ThermoFisher, Waltham, MA, USA) and Nile Red (Sigma-Aldrich, MO, USA), respectively. […] Cells were stained with 25 μg/mL of calcofluor white, 20 μM of Sytox Blue, 50 μg/mL of DCFH-DA, 10 μg/mL of JC-1 or 20 μg/mL of Nile Red, all of them for 1 h at 37 °C in the dark. Samples were washed three times to remove residual dye and suspended in PBS. Fluorescence intensity was measured using the SpectraMax 340 microplate reader (Molecular Devices, San José, CA, USA) under the following conditions: calcofluor white at 350 nm (excitation) and 432 nm (emission); Sytox Blue at 444 nm (excitation) and 480 nm (emission); DCFH-DA at 492 nm (excitation) and 517 nm (emission); JC-1 at 475 nm (excitation) and 529 nm (green fluorescence) or 590 nm (red fluorescence) for the calculation of the red/green fluorescence intensity; and Nile Red at 550 nm (excitation) and 635 nm (emission).
# [7] = tested on: R. microsporus preformed biofilm; assay: Preformed biofilm assay; assay type: cell-based, Rhizopus microsporus; details: R. microsporus, based on biofilm viability parameter
# Experimental: (§4) For the preformed biofilm assay, cells were cultured as described above in the absence of the compounds. […] An additional incubation of 24 h at 37 °C was performed to evaluate the anti-biofilm activity. Evaluation of both biofilm formation and preformed biofilms was performed using three parameters as previously described. Crystal violet, safranin and XTT assays were used to analyze the overall biomass, extracellular matrix and metabolic activity, respectively.
# [8] = Cytotoxicity assay (neutral red); assay type: cell-based, murine; details: mouse, RAW 264.7 macrophage cells
# Experimental: as §3
# R. stolonifer = assay: Antifungal susceptibility testing (broth microdilution, MIC and MFC); assay type: cell-based, Rhizopus stolonifer; details: for MIC50 / MFC: Rhizopus stolonifer, 48 h; for MIC50: lowest concentration that inhibits 50% of fungal growth; for MFC: subculture in drug-free medium
# Experimental: as §1
# [9] = tested on: R. stolonifer preformed biofilm; assay: Preformed biofilm assay; assay type: cell-based, Rhizopus stolonifer; details: R. stolonifer, based on biofilm viability parameter
# Experimental: as §4
# [10] = cited from earlier work
# [11] = Table S1, mean of the four values, read-out: % of growth inhibition, Mean
# [12] = optical density 600 nm, read-out: Growth Inhibition
# [13] = Table S1, mean of the four values
compound,measurement,setting,value
Oc1cccc(C(Nc2nccs2)c2ccc3cccnc3c2O)c1 (stereo not shown) [MMV642550],MIC,[1],2.5 to 5 µM
same,"Selectivity Index (SI), Planktonic Cell","R. microsporus; R. microsporus, from CC50 and MIC50 of planktonic cells",>10
same,MIC50,R. microsporus,5 µM
same,MFC,R. microsporus,> 20 µM
same,"Efficacy of Drugs Alone (% of Inhibition), MIC50",R. oryzae [2],62.9 % of Inhibition
same,"Efficacy of Drugs Alone (% of Inhibition), ½ MIC50",R. oryzae [2],42.3 % of Inhibition
same,"Efficacy of Combined Drugs, E obs",R. oryzae [2]; combined with Amphotericin B,78.1%
same,Interaction,R. oryzae [2]; combined with Amphotericin B,S
same,ΔE,R. oryzae [2]; combined with Amphotericin B,23.5%
same,"Efficacy of Combined Drugs, E exp",R. oryzae [2]; combined with Amphotericin B,54.6%
same,"Efficacy of Combined Drugs, E obs",R. oryzae [2]; combined with Posaconazole,60.0%
same,Interaction,R. oryzae [2]; combined with Posaconazole,A
same,ΔE,R. oryzae [2]; combined with Posaconazole,−26.5%
same,"Efficacy of Combined Drugs, E exp",R. oryzae [2]; combined with Posaconazole,86.5%
same,inhibition at 5 µM,R. oryzae UCP1295 [3]; [11],59.8%
same,inhibition at 5 µM,R. oryzae UCP1295 [3]; [12],60%
same,Viability Inhibition (XTT),R. oryzae UCP1295 [3],59%
same,"Selectivity Index (SI), Planktonic Cell","R. oryzae [4]; R. oryzae, from CC50 and MIC50 of planktonic cells",>20
same,MIC50,R. oryzae [4],2.5 µM
same,MFC,R. oryzae [4],> 20 µM
same,MIC,R. oryzae UCP1295 [5],2.5 µM
same,CC50 at 48 h,"[6]; A549 alveolar basal epithelial cells, A549, 48 h",> 50 µM
same,CC50 at 48 h,[6]; HaCaT keratinocyte cells,> 50 µM
same,chitin content (calcofluor white),R. oryzae cells,decreased
same,neutral lipids (Nile Red),R. oryzae cells,decreased
same,"Selectivity Index (SI), Preformed Biofilm",[7],>5
same,CC50 at 48 h,[8],> 50 µM
same,"Selectivity Index (SI), Planktonic Cell","R. stolonifer; R. stolonifer, from CC50 and MIC50 of planktonic cells",>20
same,MIC50,R. stolonifer,2.5 µM
same,MFC,R. stolonifer,> 20 µM
same,"Selectivity Index (SI), Preformed Biofilm",[9],>10
COc1cc(C(C(=O)NC2CCCCC2)N(C(=O)Cc2c[nH]c3ccccc23)c2ccc(C(C)C)cc2)cc(OC)c1OC (stereo not shown) [MMV1593544],"% of growth inhibition, Mean",R. oryzae UCP1295 [3]; [13],-2.6%
Cl.Nc1nc(-c2ccccc2)nc2c1ncn2[C@@H]1O[C@H](COS(=O)(=O)NC(=O)c2ccccc2O)[C@@H](O)[C@H]1O [MMV1582488],"% of growth inhibition, Mean",R. oryzae UCP1295 [3]; [13],-7.5%
Cc1[nH]c2ccccc2c1CCNCc1ccc(/C=C/C(=O)NO)cc1 [MMV010036],"% of growth inhibition, Mean",R. oryzae UCP1295 [3]; [13],1.8%
Cn1cncc1[C@@](N)(c1ccc(Cl)cc1)c1ccc2c(c1)c(-c1cccc(Cl)c1)cc(=O)n2C [MMV658803],"% of growth inhibition, Mean",R. oryzae UCP1295 [3]; [13],-24.4%
Nc1cccc(-c2nc(N)nc(NC3Cc4ccccc4C3)n2)c1 [MMV1581555],"% of growth inhibition, Mean",R. oryzae UCP1295 [3]; [13],-6.9%
CC(C)N=c1cc2n(-c3ccc(Cl)cc3)c3ccccc3nc-2cc1Nc1ccc(Cl)cc1 [MMV687800],"% of growth inhibition, Mean",R. oryzae UCP1295 [3]; [13],-1.7%
"CC[C@@H]([C@H](C)O)n1ncn(-c2ccc(N3CCN(c4ccc(OC[C@@H]5CO[C@@](Cn6cncn6)(c6ccc(F)cc6F)C5)cc4)CC3)cc2)c1=O [Posaconazole, reference compound]",MFC,[1],> 20 µM
same,MIC,[1],0.63 to 2.5 µM
same,MIC50,R. microsporus,2.5 µM
same,MFC,R. microsporus,> 20 µM
same,"Efficacy of Drugs Alone (% of Inhibition), MIC50",R. oryzae [2],63.4 % of Inhibition
same,"Efficacy of Drugs Alone (% of Inhibition), ½ MIC50",R. oryzae [2],6.5 % of Inhibition
same,inhibition at 5 µM,R. oryzae UCP1295 [3]; [11],56.3%
same,inhibition at 5 µM,R. oryzae UCP1295 [3]; [12],56%
same,Viability Inhibition (XTT),R. oryzae UCP1295 [3],73%
same,MIC50,R. oryzae [4],1.25 µM
same,MFC,R. oryzae [4],> 20 µM
same,MIC,R. oryzae UCP1295 [5],1.25 µM
same,MIC50,R. stolonifer,0.63 µM
same,MFC,R. stolonifer,> 20 µM
C/C(=N\NC(=O)C1CC1c1ccccc1)c1ccc(NC(=O)c2ccco2)cc1 (stereo not shown) [MMV1580487],"% of growth inhibition, Mean",R. oryzae UCP1295 [3]; [13],0.3%
O=S(=O)(Nc1ccc(-n2cccc2)cc1)c1ccc(Cl)c(Cl)c1 [MMV1505642],"% of growth inhibition, Mean",R. oryzae UCP1295 [3]; [13],-4.1%
Cc1onc(-c2ccccc2Cl)c1C(=O)N[C@@H]1C(=O)N2[C@@H]1SC(C)(C)[C@@H]2C(=O)O [MMV002740],"% of growth inhibition, Mean",R. oryzae UCP1295 [3]; [13],-27.0%
Cc1ccc(NC(=O)c2ccc(CN3CCN(C)CC3)cc2)cc1Nc1nccc(-c2cccnc2)n1 [MMV009948],"% of growth inhibition, Mean",R. oryzae UCP1295 [3]; [13],-3.0%
Cc1cc(C)n2nc(C(=O)NS(=O)(=O)c3c(C)cccc3OC(F)(F)F)nc2n1 [MMV1782402],"% of growth inhibition, Mean",R. oryzae UCP1295 [3]; [13],-19.8%
C=C(C)n1c(=O)n(Cc2ccccc2C)c2ccccc21 [MMV1579354],"% of growth inhibition, Mean",R. oryzae UCP1295 [3]; [13],-31.3%
"C[C@@H]1[C@H](O)[C@@H](C)/C=C/C=C/C=C/C=C/C=C/C=C/C=C/[C@H](O[C@@H]2O[C@H](C)[C@@H](O)[C@H](N)[C@@H]2O)C[C@@H]2O[C@](O)(C[C@@H](O)C[C@@H](O)[C@H](O)CC[C@@H](O)C[C@@H](O)CC(=O)O[C@H]1C)C[C@H](O)[C@H]2C(=O)O [Amphotericin B, reference compound]",oral bioavailability,[10],negligible
same,MFC,[1],> 20 µM
same,MIC,[1],> 20 µM
same,MIC50,R. microsporus,> 20 µM
same,MFC,R. microsporus,> 20 µM
same,"Efficacy of Drugs Alone (% of Inhibition), MIC50",R. oryzae [2],79.6 % of Inhibition
same,"Efficacy of Drugs Alone (% of Inhibition), ½ MIC50",R. oryzae [2],21.4 % of Inhibition
same,MIC50,R. oryzae [4],> 20 µM
same,MFC,R. oryzae [4],> 20 µM
same,MIC,R. oryzae UCP1295 [5],40 µM
same,MIC50,R. stolonifer,> 20 µM
same,MFC,R. stolonifer,> 20 µM
Cc1ncc([N+](=O)[O-])n1CC(O)CN1CCOCC1 (stereo not shown) [MMV1613562],"% of growth inhibition, Mean",R. oryzae UCP1295 [3]; [13],-0.4%
